Consider one compound from patent publication US20230104487A1, “11-(4-CHLOROPHENYL)-4-(2,3-DIHYDRO-1H-INDOLE-1-CARBONYL)-3,11-DIMETHYL-5,10,DIOXATRICYCLO[7.4.0.0,2,6,]TRIDECA-1,3,6,8-TETRAEN-13-ONE AND DERIVATIVES AS DESTABILIZER OF CRY1 FOR THE TREATMENT OF CIRCADIAN RHYTHM ASSOCIATED DISEASES AND DISORDERS” (KOC UNIVERSITESI, priority 2019, published 2023).

The nature of series [1]: Brain tissue levels in mice. It counts as in vivo, mouse. The note with it: 100 mg/kg i.p. As for the experimental part: (§1) C57BL/6J female mice (n=4 per each time point) were treated with 100 mg/kg single dose of FORMULA I intraperitoneally. Blood samples were collected 0, 0.5, 1, 2, 4, 8, 12 and 24 h after administration of FORMULA I by cardiac puncture under isoflurane anesthesia. Plasma was obtained by centrifugation from heparinized tubes and stored at −80° C. until analysis. Brain tissues were quickly removed and stored at −80° C. for further processing. For assessment of the brain exposure of FORMULA I, levels in this tissue were only determined at 2nd (n=2) and 4th (n=2) hours according to maximum concentrations of the molecule in plasma.
Liquid chromatography coupled to tandem mass spectrometry (LC-MS/MS) was used to obtain high mass accuracy data of the analytes in plasma samples for the determination of FORMULA I and Internal standard (IS) Loratadine. […] The optimized conditions of the electrospray ionization (ESI) source were as follows: gas temperature, 300° C.; gas flow, 10 L/min; nebulizer pressure, 25 psi; capillary voltage, 5500 V. ESI in the positive ion mode provides the best results for FORMULA I. For MS-MS detection, the protonated molecules were selected as precursor ions and the most abundant fragment ions obtained at collision energy of 22-20 eV were monitored as the product ions for FORMULA I and IS. […]

The subject of the next series is C57BL/6J mice. Briefly: Single dose toxicity study in mice. Format: in vivo. The method, then: Male and female C57BL/6J mice, 8-12 weeks of age, weighing 18-24 g were used in the in vivo studies with FORMULA I. Mice were obtained from Kog University Animal Research Facility (KUTTAM) and experiments were conducted in accordance with the guidelines approved for animal experimental procedures by the Koc University Animal Research Local Ethics Committee (No: 2015/13).
Mice were housed in polystyrene cages up to four animals in the room equipped with temperature control (21±2° C.) and humidity (55±5%). Mice were housed under 12 h of light (L) in alternation with 12 h of darkness (D) (LD 12:12) prior to any intervention and the same lighting regimen continued to the end of the experiment. Water and food were provided ad libitum throughout the experiments. FORMULA I or vehicle were administered intraperitoneally to mice at the same time every day (three hours after light onset). […]
The dose levels to be used in the single dose toxicity study were selected according to the OECD Guidelines (Guidelines for the testing of chemicals, 2002). […] Body weight was measured every day as an index of general toxicity. […] The body temperatures of the mice were recorded by rectal homeothermic monitor (Harvard Apparatus, US) for 5 days following FORMULA I injection. […] Food intake and water consumption were also monitored for 14 days. […] Hematological parameters were analyzed in blood samples.

A short description of series [2]: Plasma pharmacokinetics in mice. Format: in vivo, mouse. The method, then: as §1
Liquid chromatography coupled to tandem mass spectrometry (LC-MS/MS) was used to obtain high mass accuracy data of the analytes in plasma samples for the determination of FORMULA I and Internal standard (IS) Loratadine. The instrument was operated in full scan mode and ion source parameters were optimised for the analytes. The optimized conditions of the electrospray ionization (ESI) source were as follows: gas temperature, 300° C.; gas flow, 10 L/min; nebulizer pressure, 25 psi; capillary voltage, 5500 V. ESI in the positive ion mode provides the best results for FORMULA I. For MS-MS detection, the protonated molecules were selected as precursor ions and the most abundant fragment ions obtained at collision energy of 22-20 eV were monitored as the product ions for FORMULA I and IS. MS-MS analysis was performed in the selected reaction monitoring (SRM) positive ionization mode, using mass transitions for FORMULA I m/z 472.1→353.4 [collision energy (CE)=22 eV] and Fragmentor 234 V, for IS; m/z 383.2→337.2 (CE=20 eV) and fragmentor 140 V. For the separation of the analytes, a conventional reversed-phase LC separation on C18-bonded silica was used, with Methanol: % 0.1 Formic acid (90:10, v/v) mobile phase. FORMULA I was extracted from plasma samples by using liquid-liquid extraction with Methanol. 10 μL of sample was injected into the LC-MS/MS system.
Peak plasma concentration (Cmax) and time to reach peak plasma concentration (tmax) values were directly obtained from the FORMULA I plasma concentration-time curve. The area under the plasma concentration-time curve from […] was calculated by the trapezoidal method. AUC0-∞ was obtained by addition of the extrapolated part after the last sampling time using standard techniques. Other pharmacokinetic parameters of FORMULA I were calculated by the non-compartmental method. Elimination rate constant (kel) was calculated from the terminal points of FORMULA I plasma concentration-time plot and the slope of this line was equal to kel. Terminal elimination half-life (t½) was calculated by ln-linear approximation of terminal points of the data. t½ and kel were interconverted with the following formula: t1/2=ln 2/kel

[3] abbreviates: female, C57BL/6J, mouse, ip, 100 mg/kg, single dose, plasma.

Where two headings read alike, the source gives them in different places.

The AUC(0-inf) is the area under the concentration-time curve extrapolated to infinity. Lower therefore signals less exposure. In general, Cmax refers to the maximum level reached in the sampled fluid or tissue. The Tmax is the time from dosing to the highest level. Turning to `Cc1c(C(=O)N2CCc3ccccc32)oc2ccc3c(c12)C(=O)CC(C)(c1ccc(Cl)cc1)O3` (stereo not shown) [FORMULA I, 11-(4-chlorophenyl)-4-(2,3-dihydro-1H-indole-1-carbonyl)-3,11-dimethyl-5,10,dioxatricyclo[7.4.0.0,2,6,]trideca-1,3,6,8-tetraen-13-one], in series [1], the blood-brain barrier crossing entry is listed as “crosses the blood-brain barrier”. Besides, the “detection in brain tissue” value in series [1] (2nd and 4th hours) is on record as “detected in the brain tissue”. Besides, the tolerability result in the series with C57BL/6J mice (single doses of 5 and 50 mg/kg) is listed as “well-tolerated”. Moreover, in the series with C57BL/6J mice (summary statement), the “toxic effect in pharmacological studies with mice” value is “no toxic effect”. Further, in series [2] (100 mg/kg, single dose, i.p.), the “time plasma level first detected” value was found to be 0.5 h and the “time plasma level still quantifiable” value stood at 24 h. Moreover, the kel in series [2] (100 mg/kg, single dose, i.p., plasma) came out at 0.127 ± 0.01 h⁻¹. Also, in series [2] (setting [3]), the AUC(0-inf) was found to be 5190 ± 3130 ng·h/mL, the concentration peaked (Cmax) at 1150 ± 506 ng/mL and the time to peak (Tmax) is 2 to 4 h. Also, in series [2] (female, C57BL/6J, mouse, plasma, intraperitoneal, 100 mg/kg, in vivo, mice, read-out: half-life in blood (converted)), the half-life is 6 h. Moreover, in series [2] (female, C57BL/6J, mouse, plasma, ip, 100 mg/kg, single dose, i.p., plasma, read-out: t1/2 (converted)), the half-life was 5.5 ± 0.33 h. In series [2] (in vivo, mice), this compound displayed a half-life in blood of roughly 6 h.
